Patent US20220112208A1, “COMPOUNDS WITH ANTIINFLAMMATORY ACTIVITY AND METHODS OF USE THEREOF” (King Abdullah University of Science and Technology, priority 2020, published 2022)
Where two headings read alike, the source gives them in different places.

Experiments:
[1] = tested on: NO production in LPS-treated RAW 264.7 cells; experiment: Inhibition of NO production (Griess reaction) in LPS-treated RAW 264.7 macrophages; format: cell-based, mouse
Method: (§1) Mouse macrophage cell line RAW 264.7 was cultured in DMEM medium (cat. #21885-025, Gibco) supplemented with 10% heat inactivated fetal bovine serum (cat. #10270-106, Gibco) and 1% penicillin-streptomycin (cat. #15070-063, Gibco). Cells were cultured in 37° C. and 5% CO2. Each compound was diluted in Carbowax™ 400+10% ethanol (cat. #1.00983, Sigma), used also as control solvent. Final concentration in culture was 0.1% v/v carbowax and 0.01% v/v ethanol. RAW 264.7 macrophages were activated using 100 ng/mL lipopolysaccharide (LPS) (L2630, Sigma). In IC50 determination experiments, macrophages were pre-treated for 1 h with the respective compound prior to LPS stimulation.
30×104 RAW 264.7 mouse macrophages were plated in 24-well plates over-night with 0.5 mL complete medium. Cells were pretreated for 1 h with the respected compound concentration and then stimulated with 100 ng/mL LPS (L2630, Sigma) for 48 h. The amount of nitrite, an oxidative product of NO, was measured in culture supernatant of each sample using the Griess reaction. 100 μL of supernatant was mixed with 100 μl of sulfanilamide solution (1% sulfanilamide in 5% H3PO4) and incubated for 5 min at room temperature. Then, 100 μL of NED solution (0.1% N-1-naphtylethylenediamine dihydrochlorite in H2O) was added and the absorbance was measured in an automated microplate reader (Infinate 200 PRO, Tecan) at 540 nm. Nitrite concentration was calculated using a sodium nitrite standard curve. All incubations were performed in the dark.
(§2) All data are presented as mean±SEM and as percentage in case of IC50 evaluation. Statistical analysis was performed using Graphpad Prism 7.0. D'Agostino & Pearson, Shapiro Wilk and KS tests were used to evaluate normality. In case of normality, one-way ANOVA was performed, whereas in all other cases the non-parametric Kruskal-Wallis test was used. Differences with a P value <0.05 are considered significant (*indicates P<0.05, **indicates P<0.01, ***indicates P<0.001).

RAW 264.7 macrophages = experiment: MTT cytotoxicity / proliferation assay in RAW 264.7 macrophages; format: cell-based, mouse; details: for Significant cytotoxicity at concentrations above: RAW 264.7, values given in nM
Method: as §1
3.5×103 RAW 264.7 mouse macrophages were seeded in 96-well plate and cultured overnight. Cells were subsequently treated with the respective compound concentration and incubated for 24, 48 and 72 h. Number of cells was measured prior to treatment and used as normalisation control. Thiazolyl Blue Tetrazolium Bromide (MTT) (A2231.001, Applichem) was added to the cells in a final concentration of 0.5 mg/mL and then cells were incubated at 37° C. and 5% CO2 for 4 h. The supernatant was discarded and cells were lysed with 2-propanol (33539, Honeywell) with 0.4% HCl (30721, Sigma). The absorbance of each sample was measured in an automated microplate reader (Infinite 200 PRO, Tecan) at 600 nm. The average OD of each treated sample was normalized to the OD of the control sample and statistical analysis was performed using Graphpad Prism 7.0.
as §2

[2] = Mus musculus, RAW264.7, LPS (100 ng/mL)-treated RAW 264.7, 1 h pre-treatment, 48 h, vs Carbowax 400 control, mean ± SEM, read-out: IC50 Inhibition of NO production
[3] = MTT, RAW 264.7, 72 h of treatment, concentration above which cytotoxic
[4] = Mus musculus, RAW264.7, LPS-treated RAW 264.7, values given in nM, read-out: IC50 for inhibition of NO production (anti-inflammatory activity)

SMILES: CC[C@@H]1O[C@@H]2C[C@H]3O[C@H]3C[C@H](C=C=CBr)O[C@@H]2C[C@H]1Br [Compound a1, Thuwalallene A]
- IC50 ([1]; LPS (100 ng/mL)-treated RAW 264.7, 1 h pre-treatment, 48 h, vs Carbowax 400 control, mean ± SEM, read-out: IC50 Inhibition of NO production): 26000 nM

SMILES: CC[C@@H]1O[C@@H]2C/C=C\C[C@H](C=C=CBr)O[C@@H]2CC1Br (stereo partly shown) [Compound a3, Thuwalallene C]
- IC50 [1, 2]: 4180 nM

SMILES: C#C/C=C\C[C@@H]1O[C@@H]2C[C@@H](Br)[C@H](CC)O[C@@H]2C[C@@H]1Br [Compound a4, Thuwalenyne A]
- Cytotoxicity (in words) (RAW 264.7 macrophages): did not exhibit anti-inflammatory activity or cytotoxicity
- Cytotoxicity (at 72 h) (RAW 264.7 macrophages; mouse, 72 h): >62.5 µM
- Anti-inflammatory activity (in words) ([1]; LPS-treated RAW 264.7, all concentrations tested): did not exhibit anti-inflammatory activity

SMILES: CC(C)(O)C1CC[C@](C)([C@@H](O)CC[C@](C)(O)[C@H]2CC[C@H]3O[C@@H]([C@]4(C)CC[C@@H](Br)C(C)(C)O4)CC[C@]3(C)O2)O1 (stereo partly shown) [Compound a10, thyrsiferol]
- Cytotoxicity (at 72 h) (RAW 264.7 macrophages; [3]): >0.1 µM
- Significant cytotoxicity at concentrations above (RAW 264.7 macrophages; MTT): above 100 nM
- IC50 [1, 2]: 4.39 nM
- IC50 [1, 4]: 4.39 nM

SMILES: CC(=O)OC(C)(C)C1CC[C@](C)([C@@H](O)CC[C@](C)(O)[C@H]2CC[C@H]3O[C@@H]([C@]4(C)CC[C@@H](Br)C(C)(C)O4)CC[C@]3(C)O2)O1 (stereo partly shown) [a11, 23-acetyl-thyrsiferol]
- Cytotoxicity (at 72 h) (RAW 264.7 macrophages; [3]): >0.01 µM
- Significant cytotoxicity at concentrations above (RAW 264.7 macrophages; MTT): above 10 nM
- IC50 [1, 2]: 2.63 nM
- IC50 [1, 4]: 2.63 nM
